# Assay results from patent publication US20250179056A1, “NOVEL SULFATE SALT FORMS OF ISOCHROMAN-IMIDAZOLE STRUCTURED ALPHA-2A ADRENOCEPTOR AGONIST” (ORION CORPORATION, priority 2022, published 2025).
# “Also recorded” adds a separate entry of the source.
# Experiment: Slurry experiments (SLC, SL, SLT) started with crystalline form 1; wet powders analyzed by XRPD
# Assay type: physicochemical
# Conditions: for Resulting crystalline form SLC: aged at 5° C. under magnetic stirring; for Resulting crystalline form SLT: aged at 40° C. in shaker at 700 rpm; for Resulting crystalline form SL: aged at room temperature under magnetic stirring
# Method: The slurry experiments (SLC, SL and SLT) were carried out with the crystalline form 1 in different conditions. 15 mg of starting material were mixed with 200 μl of solvent or solvent mixture (at a concentration of about 75 mg/ml). The mixture was homogenized by vortexing for 10 seconds. The resulting suspensions were aged at different conditions: a) at 5° C. under magnetic stirring (SLC), b) at room temperature under magnetic stirring (SL), and c) at 40° C. in the shaker at 700 rpm (SLT). During the aging time, the samples were checked regularly, and solvent was added if needed. After completing the aging time, the vials were opened, and the (wet) powders were analyzed by XRPD.
# [1] = slurry in 2-Butanone, about 75 mg/ml
# [2] = slurry in 2-Ethoxy ethanol, about 75 mg/ml
# [3] = slurry in 2-Methyltetrahydrofuran, about 75 mg/ml
# [4] = slurry in Acetone/Water (86:14 vol %), water activity 0.75, about 75 mg/ml
# [5] = slurry in Acetonitrile/Water (96:4 vol %), water activity 0.60, about 75 mg/ml
# [6] = slurry in Ethanol, about 75 mg/ml
# [7] = slurry in Ethanol/Water (26:74 vol %), water activity >0.9, about 75 mg/ml
# [8] = slurry in Methanol/Water (20:80 vol %), water activity >0.9, about 75 mg/ml
# [9] = slurry in THF/Water (90:10 vol %), water activity 0.88, about 75 mg/ml
# [10] = slurry in Water (water activity 1), about 75 mg/ml
structure (smiles),measurement,setting,value
"COc1cccc2c1CCOC2C1=NCCN1.O=S(=O)(O)O (stereo not shown) [Form 1, 2-(5-methoxyisochroman-1-yl)-4,5-dihydro-1H-imidazole sulfate crystalline form 1]",Resulting crystalline form SLC,[1],Form 1
same,Resulting crystalline form SLT,[1],Form 1
same,Resulting crystalline form SL,[1],Form 1
same,Resulting crystalline form SLT,[2],Form 4
same,Resulting crystalline form SL,[2],Form 4
same,Resulting crystalline form SLC,[3],Form 1
same,Resulting crystalline form SLT,[3],Form 1
same,Resulting crystalline form SL,[3],Form 1
same,Resulting crystalline form SLC,[4],Form 1
same,Resulting crystalline form SLT,[4],Form 1
same,Resulting crystalline form SL,[4],Form 1
same,Resulting crystalline form SLC,[5],Form 1
same,Resulting crystalline form SLT,[5],Form 1
same,Resulting crystalline form SL,[5],Form 1
same,Resulting crystalline form SLC,[6],Form 1
same,Resulting crystalline form SLT,[6],Form 1
same,Resulting crystalline form SL,[6],Form 1
same,Resulting crystalline form SLC,[7],Form 2; also recorded: (+Form 1)
same,Resulting crystalline form SLT,[7],Form 2
same,Resulting crystalline form SL,[7],Form 2
same,Resulting crystalline form SLC,[8],Form 2
same,Resulting crystalline form SLT,[8],Form 2
same,Resulting crystalline form SL,[8],Form 2
same,Resulting crystalline form SLC,[9],Form 1
same,Resulting crystalline form SLT,[9],Form 1
same,Resulting crystalline form SLC,[10],Form 2
same,Resulting crystalline form SLT,[10],Form 2
same,Resulting crystalline form SL,[10],Form 2
